Literature values, collected in patent US9272049B2, “Methods of stimulating fat mobilization using a polymer conjugated polyphenol” (NANOPHARMACEUTICALS LLC, priority 2005, dated 2016).

Assays:
[1] = test system: insulin-sensitive mammalian cell lines; conditions: several insulin-sensitive mammalian cell lines

For Oc1ccc(C=Cc2cc(O)cc(O)c2)cc1 [Resveratrol], the fat accumulation [1] is listed as “reduce fat accumulation” and the fat accumulation (C. elegans) is listed as “reduce fat accumulation”.
